Structures can show the parent of a compound that is named as a salt.

The text below walks through data of patent publication US7662832B2, “Pyrrolo[2,3-c]pyridine derivatives and processes for the preparation thereof” (priority 2004, dated 2010).

Proton Pump (H^+/K^+-ATPase), sequence (P19156 2-1034 limits assumed): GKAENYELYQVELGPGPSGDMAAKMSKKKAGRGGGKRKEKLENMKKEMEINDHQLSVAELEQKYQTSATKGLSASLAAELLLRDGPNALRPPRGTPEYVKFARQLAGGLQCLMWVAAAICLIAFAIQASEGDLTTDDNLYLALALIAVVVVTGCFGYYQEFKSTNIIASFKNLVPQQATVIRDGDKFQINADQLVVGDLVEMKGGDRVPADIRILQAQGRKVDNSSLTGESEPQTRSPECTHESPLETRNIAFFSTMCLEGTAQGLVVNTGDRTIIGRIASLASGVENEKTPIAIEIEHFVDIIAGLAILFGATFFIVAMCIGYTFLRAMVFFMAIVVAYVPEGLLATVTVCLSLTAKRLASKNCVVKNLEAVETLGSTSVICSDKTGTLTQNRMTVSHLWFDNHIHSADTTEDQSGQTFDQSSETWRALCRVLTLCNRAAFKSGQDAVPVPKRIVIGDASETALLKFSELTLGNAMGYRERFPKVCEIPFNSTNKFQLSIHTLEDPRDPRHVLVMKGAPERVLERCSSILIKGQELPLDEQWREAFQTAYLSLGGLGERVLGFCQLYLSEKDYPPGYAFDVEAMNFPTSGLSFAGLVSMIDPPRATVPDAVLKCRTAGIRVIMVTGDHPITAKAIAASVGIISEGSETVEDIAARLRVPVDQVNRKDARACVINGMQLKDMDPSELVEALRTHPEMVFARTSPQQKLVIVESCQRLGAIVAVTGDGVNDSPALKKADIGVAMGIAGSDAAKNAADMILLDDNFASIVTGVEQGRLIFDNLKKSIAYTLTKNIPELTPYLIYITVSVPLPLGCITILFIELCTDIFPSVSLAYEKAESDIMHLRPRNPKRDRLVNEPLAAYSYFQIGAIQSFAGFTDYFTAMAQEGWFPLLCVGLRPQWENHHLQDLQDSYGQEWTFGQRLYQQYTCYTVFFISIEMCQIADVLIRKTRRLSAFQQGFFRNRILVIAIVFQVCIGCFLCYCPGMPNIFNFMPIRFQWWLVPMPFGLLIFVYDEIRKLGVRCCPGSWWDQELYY
Proton Pump (H^+/K^+-ATPase), sequence (P18434 whole entry partner): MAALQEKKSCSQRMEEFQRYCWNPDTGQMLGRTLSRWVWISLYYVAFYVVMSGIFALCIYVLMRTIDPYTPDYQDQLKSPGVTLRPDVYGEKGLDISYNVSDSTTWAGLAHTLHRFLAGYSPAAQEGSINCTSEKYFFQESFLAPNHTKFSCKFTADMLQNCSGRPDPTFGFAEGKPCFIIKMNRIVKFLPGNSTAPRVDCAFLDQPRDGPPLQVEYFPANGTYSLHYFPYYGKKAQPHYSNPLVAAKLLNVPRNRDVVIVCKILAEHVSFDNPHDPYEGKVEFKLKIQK

This test has as its target Proton Pump (H^+/K^+-ATPase) (Sus scrofa, UniProt P19156). Nature of the test: Inhibitory effects on proton pump (H^+/K^+-ATPase) activity. It is filed as biochemical. The note with it: hog gastric vesicles; K^+ stimulated H^+/K^+-ATPase activity; 30 minutes at 37° C.
Regarding `CCC1c2ccccc2CCN1c1nccc2c(C)c(C)n(C)c12` (stereo not shown) [Example 575, 1-ethyl-2-(1,2,3-trimethyl-1H-pyrrolo[2,3-c]pyridin-7-yl)-1,2,3,4-tetrahydroisoquinoline hydrochloride], the IC50 came out at 470 nM.

`COCCn1c(C)c(C)c2cc(C(=O)n3ccnc3)nc(N3CCc4ccccc4C3)c21` [Example 842, [7-(3,4-dihydro-1H-isoquinolin-2-yl)-1-(2-methoxyethyl)-2,3-dimethyl-1H-pyrrolo[2,3-c]pyridin-5-yl]-(imidazol-1-yl)-methanone hydrochloride] gave a concentration for half-maximal inhibition (IC50) of 480 nM. This IC50 and that of the compound before are within 1.5-fold of each other.

Compound `COc1ccc(Cn2c(C)c(C)c3ccnc(N(C)Cc4ccc(F)cc4)c32)cc1` [Example 156, 7-[N-(4-fluorobenzyl)-N-methyl]amino-1-(4-methoxybenzyl)-2,3-dimethyl-1H-pyrrolo[2,3-c]pyridine hydrochloride] came in with a half-inhibitory concentration (IC50) of 310 nM. Turning to `CCn1c(C)c(C)c2cc(C(=O)N3CCC(O)CC3)nc(N3CCc4ccccc4C3)c21` [Example 806, [7-(3,4-dihydro-1H-isoquinolin-2-yl)-1-ethyl-2,3-dimethyl-1H-pyrrolo[2,3-c]pyridin-5-yl]-(4-hydroxypiperidin-1-yl)-methanone hydrochloride], the IC50 turned out to be 13 nM. Next, `C=CCn1c(C)c(C)c2cc(C(=O)N3CCN(C)CC3)nc(N3CCc4ccccc4C3)c21` [Example 785, [1-allyl-7-(3,4-dihydro-1H-isoquinolin-2-yl)-2,3-dimethyl-1H-pyrrolo[2,3-c]pyridin-5-yl]-(4-methylpiperazin-1-yl)-methanone hydrochloride]: 0.7 nM; `C=CCn1c(C)c(C)c2cc(C(=O)NCC(F)(F)F)nc(N3CCc4ccccc4C3)c21` [Example 762, 1-allyl-7-(3,4-dihydro-1H-isoquinolin-2-yl)-2,3-dimethyl-N-(2,2,2-trifluoroethyl)-1H-pyrrolo[2,3-c]pyridin-5-carboxamide]: 350 nM.

With `Cc1c(C)n(CC2OCCO2)c2c(N(C)Cc3ccc(F)cc3)nccc12` [Example 158, 1-(1,3-dioxolan-2-ylmethyl)-7-[N-(4-fluorobenzyl)-N-methyl]amino-2,3-dimethyl-1H-pyrrolo[2,3-c]pyridine hydrochloride], the 50% inhibitory concentration (IC50) was 270 nM. The IC50 values of the last two compounds are within 1.5-fold of each other. Next, `Cc1ccc(Cn2c(C)c(C)c3cc(C(=O)N4CCN(C)CC4)nc(N4CCc5ccccc5C4)c32)cc1` [Example 828, [7-(3,4-dihydro-1H-isoquinolin-2-yl)-1-(4-methylbenzyl)-2,3-dimethyl-1H-pyrrolo[2,3-c]pyridin-5-yl]-(4-methylpiperazin-1-yl)-methanone hydrochloride]: 94 nM. Consider `C=CCn1c(C)c(C)c2ccnc(N3CCc4ccccc4C3)c21` [Example 487, 1-allyl-7-(1,2,3,4-tetrahydroisoquinolin-2-yl)-2,3-dimethyl-1H-pyrrolo[2,3-c]pyridine methanesulfonate], for which the midpoint of inhibition, the IC50, lay at 4 nM. In turn, `CCNCc1cc2c(C)c(C)n(Cc3cccc(F)c3)c2c(N2CCc3ccccc3C2)n1` [Example 868, N-[7-(3,4-dihydro-1H-isoquinolin-2-yl)-1-(3-fluorobenzyl)-2,3-dimethyl-1H-pyrrolo[2,3-c]pyridin-5-ylmethyl]-ethylamine hydrochloride] returned a concentration for half-maximal inhibition (IC50) of 39 nM. Next, `C=CCn1c(C)c(C)c2ccnc(-c3ccc(OC)cc3)c21` [Example 360, 1-allyl-7-(4-methoxyphenyl)-2,3-dimethyl-1H-pyrrolo[2,3-c]pyridine hydrochloride]: 278 nM; `Cc1c(C)n(CC2CC2)c2c(CCc3ccccc3)nccc12` [Example 453, 1-cyclopropylmethyl-2,3-dimethyl-7-phenethyl-1H-pyrrolo[2,3-c]pyridine hydrochloride]: 340 nM.

Regarding `Cc1c(C)n(Cc2cccc(F)c2)c2c(N3CCc4ccccc4C3)nc(C#N)cc12` [Example 695, 7-(3,4-dihydro-1H-isoquinolin-2-yl)-1-(3-fluorobenzyl)-2,3-dimethyl-1H-pyrrolo[2,3-c]pyridin-5-carbonitrile], it took 481 nM to reach half-maximal inhibition (IC50).
